From patent US20250115603A1, “CRYSTALLINE FORMS OF A KRAS INHIBITOR” (Incyte Corporation, priority 2023, published 2025)
Counter-ions that a name gives are not always drawn. Marks after values point to notes of the source that are not given here.

Tests used:
Format in all cases: physicochemical
[1] = Compound 1 hydrochloride polymorph screening; details: nine polymorphs (Forms I-IX) identified by standard polymorph screening
[2] = Solubility measurement at 50° C. (HPLC of saturated solution); details: for Solubility (50° C.): monohydrochloride dihydrate; for solubility: 50 °C, organic solvent or mixture
Method: (§1) The solubility of the Compound 1 HCl sample (prepared according to Example 4) was measured according to the procedure for solubility at 25° C. in Table 8 and the procedure for solubility at 50° C. in Table 9.

[3] = Solubility measurement at 25° C. (HPLC of saturated solution); details: for solubility: 25 °C, organic solvent or mixture; for Solubility (25° C.): monohydrochloride dihydrate
Method: as §1

[4] = 2-Methoxyethanol, by visual assessment
[5] = Dimethylformamide, by visual assessment
[6] = n-Propanol, by visual assessment

With Cc1nc2c(F)c(-c3cccc(Cl)c3Cl)c(CCC#N)cc2c2c1cc(C1CC3C[C@H]3N1C(=O)C1CC1)n2C1[C@H]2CN[C@@H]1C2 (atropisomer, axis not shown; (Ra)) [Compound 1 HCl, 3-((Ra)-1-((1R,4R,5S)-2-azabicyclo[2.1.1]hexan-5-yl)-2-((1R,3R,5R)-2-(cyclopropanecarbonyl)-2-azabicyclo[3.1.0]hexan-3-yl)-7-(2,3-dichlorophenyl)-6-fluoro-4-methyl-1H-pyrrolo[3,2-c]quinolin-8-yl)propanenitrile monohydrochloride dihydrate] the “Relative stability of crystalline forms of Compound 1 HCl” value [1] was “most stable form”, the “Solubility (50° C.)” value [2, 4] was >50* mg/mL and the solubility ([2]; 2-methoxyethanol, by visual assessment) was greater than 50 mg/mL. For the same compound, the “Solubility (50° C.)” value ([2]; 3% MeOH 0.3% water in EtOAc) was 0.8 mg/mL, the solubility ([2]; 3% MeOH, 0.3% water in EtOAc, 3% MeOH 0.3% water in EtOAc) was less than 1 mg/mL and the “Solubility (50° C.)” value ([2]; Acetone) was 19.2 mg/mL. The “Solubility (50° C.)” value ([2]; Chloroform) was 21.2 mg/mL, the solubility ([2]; DMSO, by visual assessment) was greater than 50 mg/mL and the “Solubility (50° C.)” value ([2]; DMSO, by visual assessment) was >50* mg/mL. For the same compound, the “Solubility (50° C.)” value [2, 5] was >50* mg/mL, the solubility ([2]; EtOH) was 15 to 50 mg/mL and the “Solubility (50° C.)” value ([2]; EtOH) was 22.3 mg/mL. For the same compound, the solubility ([2]; Ethyl formate) was less than 1 mg/mL, the “Solubility (50° C.)” value ([2]; Ethyl formate) was 0.6 mg/mL and the solubility ([2]; MeOH, by visual assessment) was greater than 50 mg/mL. For the same compound, the “Solubility (50° C.)” value ([2]; MeOH, by visual assessment) was >50* mg/mL, the solubility ([2]; acetone) was 15 to 50 mg/mL and the solubility ([2]; chloroform) was 15 to 50 mg/mL. The solubility ([2]; dimethylformamide, by visual assessment) was greater than 50 mg/mL, the solubility ([2]; heptane) was 0.02 mg/mL and the “Solubility (50° C.)” value ([2]; iso-Propanol (IPA), by visual assessment) was >50* mg/mL. For the same compound, the solubility ([2]; iso-propanol (IPA), by visual assessment) was greater than 50 mg/mL, the solubility ([2]; n-BuOH, by visual assessment) was greater than 50 mg/mL and the “Solubility (50° C.)” value ([2]; n-BuOH, by visual assessment) was >50* mg/mL. For the same compound, the solubility [2, 6] was greater than 50 mg/mL, the “Solubility (50° C.)” value [2, 6] was >50* mg/mL and the solubility [3, 4] was greater than 50 mg/mL. The “Solubility (25° C.)” value [3, 4] was >50* mg/mL, the solubility ([3]; DMSO, by visual assessment) was greater than 50 mg/mL and the “Solubility (25° C.)” value ([3]; DMSO, by visual assessment) was >50* mg/mL. For the same compound, the solubility [3, 5] was greater than 50 mg/mL, the “Solubility (25° C.)” value [3, 5] was >50* mg/mL and the solubility ([3]; MeOH, by visual assessment) was greater than 50 mg/mL. For the same compound, the “Solubility (25° C.)” value ([3]; MeOH, by visual assessment) was >50* mg/mL, the solubility ([3]; Methyl iso-butyl ketone) was 1 to 15 mg/mL and the “Solubility (25° C.)” value ([3]; Methyl iso-butyl ketone) was 1.3 mg/mL. The solubility ([3]; Tetrahydrofuran (THF)) was less than 1 mg/mL, the “Solubility (25° C.)” value ([3]; Tetrahydrofuran (THF)) was 0.9 mg/mL and the solubility ([3]; heptane) was 0.01 mg/mL. The solubility ([3]; n-BuOH, by visual assessment) was greater than 50 mg/mL and the “Solubility (25° C.)” value ([3]; n-BuOH, by visual assessment) was >50* mg/mL.
